Results: patent publication US20050250801A1, “Method of treating cancer with azaspirane compositions” (priority 2003, published 2005)
Where two headings read alike, the source gives them in different places.

What was measured:
NCI-H322M = test: NCI in vitro SRB assay, Non-Small Cell Lung Cancer; type: cell-based
Procedure: (§1) An in vitro assay which tested the ability of N,N,-diethyl-8,8-dipropyl-2-azaspiro[4,5]decane-2-propanamine dimaleate (Compound 1) to inhibit the growth of known cancer cell lines was performed by the National Cancer Institute in accordance with standard procedures. See: Lin, Z. X., Hoult, J. R., and Raman, A. Sulphorhodamine B assay for measuring proliferation of a pigmented melanocyte cell line and its application to the evaluation of crude drugs used in the treatment of vitiligo. J Ethnopharmacol. 66: 141-150, 1999. Briefly, selected tumor cell lines were cultured in media containing five different concentrations of Compound 1. After 48 hours of continuous exposure, a sulforhodamine B (SRB) assay was used to estimate cell viability or growth via optical measurements.
(§2) From the measurements, the following values were determined: 1) the concentration of Compound 1 at which a tumor cell growth inhibition of 50% (relative to control) occurs (GI50), 2) the concentration of Compound 1 at which no growth occurs (total growth inhibition, TGI), and 3) the concentration of Compound 1 at which the […] (LC 50). […] FIG. 6 illustrates, graphically, tumor cell growth as a function of Compound 1 concentration of the scanned tumor cell lines.

NCI-H460 = test: NCI in vitro SRB assay, Non-Small Cell Lung Cancer; type: cell-based; conditions: for CC50 / GI50: Homo sapiens
Procedure: as §1, §2

NCI-H522 = test: NCI in vitro SRB assay, Non-Small Cell Lung Cancer; type: cell-based; conditions: for CC50 / GI50: Homo sapiens
Procedure: as §1, §2

HOP-92 = test: NCI in vitro SRB assay, Non-Small Cell Lung Cancer; type: cell-based; conditions: for CC50 / GI50: Homo sapiens
Procedure: as §1, §2

T84 cells = test: Induction of apoptosis, DNA fragmentation analysis, T84; type: cell-based, human; conditions: 12 hours treatment
Procedure: T84, CaCo-2 and HUVEC cells, respectively, were grown in 100 mm dishes for 7-9 days, culture media for HUVEC was EGM-2 (Clonetics, BioWhitaker Co.), until they reached semi-confluency. Cell monolayers were then treated for 12 hours (CaCo-2 and T84) and 16 hours (HUVEC), respectively, at the indicated concentrations of N,N,-diethyl-8,8-dipropyl-2-azaspiro[4,5]decane-2-propanamine dimaleate (Compound 1) in culture media. Cells were collected by trypsinization and the apoptotic DNA was isolated from these cells following the instructions of the DNA fragmentation analysis kit (Boehringer Mannheim Corp., Indianapolis, Ind.). The apoptotic DNA was evaluated using 1.5% agarose gel electrophoresis followed by staining with ethidium bromide. M denotes the lane containing molecular weight markers of DNA.

[1] = NCI-H460, Log10 conc -4.0 Moles/L
[2] = NCI-H460, Log10 conc -5.0 Moles/L
[3] = NCI-H460, Log10 conc -6.0 Moles/L
[4] = NCI-H460, Log10 conc -7.0 Moles/L
[5] = NCI-H460, Log10 conc -8.0 Moles/L
[6] = NCI-H522, Log10 conc -4.0 Moles/L
[7] = NCI-H522, Log10 conc -5.0 Moles/L
[8] = NCI-H522, Log10 conc -6.0 Moles/L
[9] = NCI-H522, Log10 conc -7.0 Moles/L
[10] = NCI-H522, Log10 conc -8.0 Moles/L
[11] = HOP-92, Log10 conc -4.0 Moles/L
[12] = HOP-92, Log10 conc -5.0 Moles/L
[13] = HOP-92, Log10 conc -6.0 Moles/L
[14] = HOP-92, Log10 conc -7.0 Moles/L
[15] = HOP-92, Log10 conc -8.0 Moles/L

For `CCCC1(CCC)CCC2(CCN(CCCN(CC)CC)C2)CC1.O=C(O)/C=C\C(=O)O.O=C(O)/C=C\C(=O)O` [Compound 1, N,N,-diethyl-8,8-dipropyl-2-azaspiro[4,5]decane-2-propanamine dimaleate], the “Percent Growth” value (NCI-H322M; Log10 conc -5.0 Moles/L) was −86%, the “Mean Optical Densities” value (NCI-H322M; Log10 conc -6.0 Moles/L) was 0.855 and the “Percent Growth” value (NCI-H322M; Log10 conc -6.0 Moles/L) was 48%. The “Mean Optical Densities” value (NCI-H322M; Log10 conc -7.0 Moles/L) was 0.979, the “Percent Growth” value (NCI-H322M; Log10 conc -7.0 Moles/L) was 86% and the “Mean Optical Densities” value (NCI-H322M; Log10 conc -8.0 Moles/L) was 0.991. The “Percent Growth” value (NCI-H322M; Log10 conc -8.0 Moles/L) was 89%, the CC50 (NCI-H460; NCI-H460, read-out: LC50) was 5080 nM and the CC50 (NCI-H460; NCI-H460, read-out: Log10 LC50 (converted)) was 5130 nM. For the same compound, the GI50 (NCI-H460; NCI-H460, read-out: GI50) was 1310 nM, the GI50 (NCI-H460; NCI-H460, read-out: Log10 GI50 (converted)) was 1320 nM and the “Log10 TGI” value (NCI-H460; NCI-H460) was −5.59. The TGI (NCI-H460; NCI-H460) was 2580 nM, the “Mean Optical Densities” value (NCI-H460; [1]) was 0.015 and the “Percent Growth” value (NCI-H460; [1]) was −90%. The “Mean Optical Densities” value (NCI-H460; [2]) was −0.001, the “Percent Growth” value (NCI-H460; [2]) was −100% and the “Mean Optical Densities” value (NCI-H460; [3]) was 1.075. For the same compound, the “Percent Growth” value (NCI-H460; [3]) was 70%, the “Mean Optical Densities” value (NCI-H460; [4]) was 1.278 and the “Percent Growth” value (NCI-H460; [4]) was 85%. For the same compound, the “Mean Optical Densities” value (NCI-H460; [5]) was 1.403, the “Percent Growth” value (NCI-H460; [5]) was 95% and the CC50 (NCI-H522; NCI-H522, read-out: LC50) was over 100000 nM. The CC50 (NCI-H522; NCI-H522, read-out: Log10 LC50 (converted)) was over 100000 nM, the GI50 (NCI-H522; NCI-H522, read-out: GI50) was 1180 nM and the GI50 (NCI-H522; NCI-H522, read-out: Log10 GI50 (converted)) was 1170 nM. For the same compound, the “Log10 TGI” value (NCI-H522; NCI-H522) was −5.22, the TGI (NCI-H522; NCI-H522) was 6050 nM and the “Mean Optical Densities” value (NCI-H522; [6]) was 0.099. For the same compound, the “Percent Growth” value (NCI-H522; [6]) was −7%, the “Mean Optical Densities” value (NCI-H522; [7]) was 0.091 and the “Percent Growth” value (NCI-H522; [7]) was −15%. For the same compound, the “Mean Optical Densities” value (NCI-H522; [8]) was 0.347, the “Percent Growth” value (NCI-H522; [8]) was 55% and the “Mean Optical Densities” value (NCI-H522; [9]) was 0.531. The “Percent Growth” value (NCI-H522; [9]) was 97%, the “Mean Optical Densities” value (NCI-H522; [10]) was 0.518 and the “Percent Growth” value (NCI-H522; [10]) was 94%. The “Log10 TGI” value (HOP-92; HOP-92) was −5.41, the TGI (HOP-92; HOP-92) was 3920 nM and the “Mean Optical Densities” value (HOP-92; [11]) was 0.106. The “Percent Growth” value (HOP-92; [11]) was −87%, the “Mean Optical Densities” value (HOP-92; [12]) was 0.542 and the “Percent Growth” value (HOP-92; [12]) was −33%. The “Mean Optical Densities” value (HOP-92; [13]) was 1.227, the “Percent Growth” value (HOP-92; [13]) was 49% and the “Mean Optical Densities” value (HOP-92; [14]) was 1.412. The “Percent Growth” value (HOP-92; [14]) was 71%, the “Mean Optical Densities” value (HOP-92; [15]) was 1.529 and the “Percent Growth” value (HOP-92; [15]) was 85%. The CC50 (HOP-92; HOP-92, read-out: LC50) was 20300 nM, the CC50 (HOP-92; HOP-92, read-out: Log10 LC50 (converted)) was 20400 nM and the GI50 (HOP-92; HOP-92, read-out: GI50) was 897 nM. The GI50 (HOP-92; HOP-92, read-out: Log10 GI50 (converted)) was 891 nM and the “DNA ladder formation (apoptosis)” value (T84 cells) was “formation of DNA laddering in a dose-dependent manner”.
